Assay results as given in patent US20250215010A1, “DIAZABICYCLOOCTANE DERIVATIVES USEFUL AS MATRIX METALLOPROTEINASE INHIBITORS” (VASA THERAPEUTICS SPOLKA Z OGRANICZONA ODPOWIEDZIALNOSCIA, priority 2022, published 2025).
Read-outs that look alike come from different tables or passages of the source.

Assays:
Type in all cases: biochemical
MMP9 = MMP9 (Homo sapiens, UniProt P14780); assay: MMP-9 colorimetric inhibition assay (Enzo kit BML-AK410)
Method: (§1) The inhibitory activities of the compounds of the invention were assessed in 96-well microplate format using MMP1, MMP2, MMP9 and MMP13 colorimetric assay kits and TACE fluorometric assay kit from Enzo Life Sciences, Inc. The inhibitory effect of the compounds of the invention on ADAM10 activity were evaluated in 96-well microplate format using fluorometric assay from AnaSpec, Inc.
(§2) The MMP-9 Colorimetric Drug Discovery Kit (catalog #BML-AK410) is a complete assay system designed to screen inhibitors of matrix metalloproteinase-9 using a thiopeptide as a chromogenic substrate (Ac-PLG-[2-mercapto-4-methylpentanoyl]-LG-OC2H5). The MMP cleavage site peptide bond is replaced by a thioester bond in the thiopeptide. Hydrolysis of this bond by an MMP produces a sulfhydryl group, which reacts with DTNB [5,5′-dithiobis(2-nitrobenzoic acid), Ellman's reagent] to form 2-nitro-5-thiobenzoic acid, that can be detected spectrophotometrically.
(§3) The inhibitory activities of the compounds of the invention against MMP1, MMP2, MMP9 and MMP13 were tested according to the manufacturer's assay protocols and the absorbance at 415 nm was monitored using the Tecan Infinite® 200 Pro F Nano^+ microplate reader.
(§4) The normalized values were analyzed using GraphPadPrism 9 for Windows (GraphPad Software, San Diego, CA, USA) software by plotting inhibition curves and determining the IC50 values (in nM).

MMP13 = molecular target: T1, MMP13 (Homo sapiens, UniProt P45452); assay: MMP-13 colorimetric inhibition assay (Enzo kit BML-AK412)
T1 construct: purchased Enzo Life Sciences, Inc. BML-AK412
Method: as §1
as §2, with “MMP-13” for “MMP-9”, “#BML-AK412)” for “#BML-AK410)”, “metalloproteinase-13” for “metalloproteinase-9”
as §3, §4

MMP2 = molecular target: T2, MMP2 (Homo sapiens, UniProt P08253); assay: MMP-2 colorimetric inhibition assay (Enzo kit BML-AK408)
T2 sequence (P08253 110-660): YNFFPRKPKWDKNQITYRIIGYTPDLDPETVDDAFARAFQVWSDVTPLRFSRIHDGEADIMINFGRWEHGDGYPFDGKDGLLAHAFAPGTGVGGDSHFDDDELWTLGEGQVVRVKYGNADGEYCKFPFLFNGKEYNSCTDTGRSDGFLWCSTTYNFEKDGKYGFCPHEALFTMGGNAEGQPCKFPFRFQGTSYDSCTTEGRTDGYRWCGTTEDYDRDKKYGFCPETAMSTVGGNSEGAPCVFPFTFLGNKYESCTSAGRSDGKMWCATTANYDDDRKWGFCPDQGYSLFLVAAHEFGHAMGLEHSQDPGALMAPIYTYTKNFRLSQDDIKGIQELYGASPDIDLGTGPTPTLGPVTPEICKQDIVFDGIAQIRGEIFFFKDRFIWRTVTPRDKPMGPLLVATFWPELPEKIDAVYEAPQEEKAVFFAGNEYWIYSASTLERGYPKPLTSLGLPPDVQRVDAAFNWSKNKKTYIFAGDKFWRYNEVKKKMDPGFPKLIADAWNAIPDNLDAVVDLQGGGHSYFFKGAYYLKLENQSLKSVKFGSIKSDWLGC
Method: as §1
as §2, with “MMP-2” for “MMP-9”, “#BML-AK408)” for “#BML-AK410)”, “screen MMP-2” for “screen”, “inhibitors” for “inhibitors of matrix metalloproteinase-9”
as §3, §4

ADAM17 (TACE) = ADAM17 (TACE) (Homo sapiens, UniProt P78536); assay: TACE fluorometric inhibition assay (Enzo kit BML-AK310)
ADAM17 (TACE), sequence (P78536 215-477 limits assumed): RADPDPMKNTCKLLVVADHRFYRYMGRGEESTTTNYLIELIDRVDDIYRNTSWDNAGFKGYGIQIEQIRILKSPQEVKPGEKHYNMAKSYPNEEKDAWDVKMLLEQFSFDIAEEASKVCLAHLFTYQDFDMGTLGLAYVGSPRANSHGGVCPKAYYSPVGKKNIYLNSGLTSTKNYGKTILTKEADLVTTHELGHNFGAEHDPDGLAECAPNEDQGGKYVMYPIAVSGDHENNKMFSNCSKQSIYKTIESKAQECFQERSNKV
Method: as §1
The TACE Fluorometric Drug Discovery Kit (catalog #BML-AK310) is a complete assay system designed to screen ADAM17 (TACE) inhibitors using a quenched fluorogenic peptide: Mca-PLAQAV-Dpa-RSSSR—NH2. Mca fluorescence is quenched by the Dpa group until cleavage by proteases separates the two moieties leading to an increase in Mca fluorescence.
The inhibitory activity of the compounds of the invention against TACE was tested according to the manufacturer's assay protocol and the fluorescence was monitored at excitation/emission wavelengths=320 nm/420 nm using Tecan Infinite® 200 Pro F Nano^+ microplate reader.
as §4

MMP1 = molecular target: T3, MMP1 (Homo sapiens, UniProt P03956); assay: MMP-1 colorimetric inhibition assay (Enzo kit BML-AK404)
T3 sequence (P03956 100-269 limits assumed): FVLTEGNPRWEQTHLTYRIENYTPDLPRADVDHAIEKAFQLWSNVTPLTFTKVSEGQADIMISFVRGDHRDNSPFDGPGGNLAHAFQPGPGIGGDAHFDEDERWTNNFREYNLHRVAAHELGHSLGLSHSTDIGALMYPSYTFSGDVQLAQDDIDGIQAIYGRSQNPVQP
Method: as §1
as §2, with “MMP-1” for “MMP-9”, “#BML-AK404)” for “#BML-AK410)”, “metalloproteinase-1” for “metalloproteinase-9”
as §3, §4

[1] = thiopeptide substrate, absorbance 415 nm, read-out: MMP 9 IC50 class
[2] = thiopeptide substrate, absorbance 415 nm, read-out: MMP 13 IC50 class
[3] = thiopeptide substrate, absorbance 415 nm, read-out: MMP 2 IC50 class
[4] = quenched fluorogenic peptide, ex/em 320/420 nm, read-out: TACE IC50 class
[5] = thiopeptide substrate, absorbance 415 nm, read-out: MMP 1 IC50 class

MMP9, sequence (P14780 94-707): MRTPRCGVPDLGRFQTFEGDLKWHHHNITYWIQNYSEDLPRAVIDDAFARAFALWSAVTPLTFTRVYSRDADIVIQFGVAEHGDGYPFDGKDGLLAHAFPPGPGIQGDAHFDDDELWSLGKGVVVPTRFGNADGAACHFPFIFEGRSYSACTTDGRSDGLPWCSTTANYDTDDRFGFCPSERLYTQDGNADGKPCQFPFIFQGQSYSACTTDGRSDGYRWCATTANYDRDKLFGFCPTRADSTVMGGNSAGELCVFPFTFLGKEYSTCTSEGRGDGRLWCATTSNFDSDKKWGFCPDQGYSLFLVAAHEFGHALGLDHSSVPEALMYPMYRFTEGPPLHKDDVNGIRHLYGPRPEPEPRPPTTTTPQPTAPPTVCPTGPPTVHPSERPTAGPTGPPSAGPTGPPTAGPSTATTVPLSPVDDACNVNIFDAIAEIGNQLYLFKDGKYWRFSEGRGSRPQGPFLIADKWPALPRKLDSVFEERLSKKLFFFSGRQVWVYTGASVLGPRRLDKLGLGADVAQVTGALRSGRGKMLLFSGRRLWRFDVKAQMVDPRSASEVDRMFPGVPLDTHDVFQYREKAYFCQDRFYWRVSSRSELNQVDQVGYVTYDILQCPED

Work on `COCCOC(=O)N1[C@@H]2CC[C@H]1[C@H](C(=O)NO)N(S(=O)(=O)c1cc(F)c(Oc3ccc(Cl)cc3)c(F)c1)C2` [Example 2, (1S,2R,5R)-2-methoxyethyl 3-((4-(4-chlorophenoxy)-3,5-difluoro-phenyl)sulfonyl)-2-(hydroxycarbamoyl)-3,8-diazabicyclo-[3.2.1]octane-8-carboxylate] yielded an IC50 (MMP9; [1]) of 0.05 to 1 µM, an IC50 (MMP13; [2]) of 0.05 to 1 µM and an IC50 (MMP2; [3]) of 0.05 to 1 µM.

Work on `COCCOC(=O)N1[C@H]2CC[C@@H]1[C@@H](C(=O)NO)N(S(=O)(=O)c1cc(F)c(Oc3ccc(Cl)cc3)c(F)c1)C2` [Example 3, 2-methoxyethyl (1R,2S,5S)-3-((4-(4-chlorophenoxy)-3,5-difluorophenyl)-sulfonyl)-2-(hydroxycarbamoyl)-3,8-diaza-bicyclo[3.2.1]octane-8-carboxylate] yielded an IC50 (MMP9; [1]) of 1 to 10 µM, an IC50 (MMP13; [2]) of 1 to 10 µM and an IC50 (MMP2; [3]) of 1 to 10 µM.

`COCCOC(=O)N1[C@@H]2CC[C@H]1[C@H](C(=O)NO)N(S(=O)(=O)c1ccc(-c3cccc(F)c3)nc1)C2` [Example 4, 2-methoxyethyl (1S,2R,5R)-3-((6-(3-fluorophenyl)pyridin-3-yl)sulfonyl)-2-(hydroxycarbamoyl)-3,8-diaza-bicyclo[3.2.1]octane-8-carboxylate] gave an IC50 (MMP9; [1]) of 1 to 10 µM, an IC50 (MMP13; [2]) of 0.05 to 1 µM and an IC50 (MMP2; [3]) of 0.05 to 1 µM.

In the case of `COCCOC(=O)N1[C@@H]2CC[C@H]1[C@H](C(=O)NO)N(S(=O)(=O)c1cnc(Oc3ccc(F)cc3)c(F)c1)C2` [Example 6, 2-methoxyethyl (1S,2R,5R)-3-((5-fluoro-6-(4-fluoro-phenoxy)pyridin-3-yl)sulfonyl)-2-(hydroxycarbamoyl)-3,8-diazabicyclo[3.2.1]-octane-8-carboxylate], the IC50 (MMP9; [1]) is reported as < 0.05 µM, the IC50 (ADAM17 (TACE); [4]) is reported as 1 to 10 µM and the IC50 (MMP13; [2]) is reported as < 0.05 µM. The IC50 (MMP2; [3]) was < 0.05 µM and the IC50 (MMP1; [5]) was 1 to 10 µM.

For `COCCOC(=O)N1[C@@H]2CC[C@H]1[C@H](C(=O)NO)N(S(=O)(=O)c1ccc(OC3CCC(OC)CC3)nc1)C2` (stereo partly drawn) [Example 11, 2-methoxyethyl (1S,2R,5R)-2-(hydroxycarbamoyl)-3-((6-((4-methoxy-cyclohexyl)oxy)-pyridin-3-yl)-sulfonyl)-3,8-diaza-bicyclo[3.2.1]octane-8-carboxylate], the IC50 (MMP9) was < 0.05 µM, the IC50 (ADAM17 (TACE)) was 1 to 10 µM and the IC50 (MMP13) was 0.05 to 1 µM. The IC50 (MMP2) was < 0.05 µM and the IC50 (MMP1) was 1 to 10 µM.

With `COCCOC(=O)N1[C@@H]2CC[C@H]1[C@H](C(=O)NO)N(S(=O)(=O)c1ccc(OC3CCC(C)(C)CC3)nc1)C2` [Example 12, 2-methoxyethyl (1S,2R,5R)-3-((6-((4,4-dimethyl-cyclohexyl)-oxy)pyridin-3-yl)-sulfonyl)-2-(hydroxycarbamoyl)-3,8-diazabicyclo[3.2.1]-octane-8-carboxylate] the IC50 (MMP9; [1]) was < 0.05 µM, the IC50 (ADAM17 (TACE); [4]) was 1 to 10 µM and the IC50 (MMP13; [2]) was 0.05 to 1 µM. The IC50 (MMP2; [3]) was 0.05 to 1 µM and the IC50 (MMP1; [5]) was 1 to 10 µM.

With `COCCOC(=O)N1[C@@H]2CC[C@H]1[C@H](C(=O)NO)N(S(=O)(=O)c1ccc(OC3CCOCC3)nc1)C2` [Example 13, 2-methoxyethyl (1S,2R,5R)-2-(hydroxycarbamoyl)-3-((6-((tetrahydro-2H-pyran-4-yl)oxy)-pyridin-3-yl)sulfonyl)-3,8-diazabicyclo[3.2.1]-octane-8-carboxylate] the IC50 (MMP9; [1]) was < 0.05 µM, the IC50 (ADAM17 (TACE); [4]) was 1 to 10 µM and the IC50 (MMP13; [2]) was < 0.05 µM. It also gave an IC50 (MMP2; [3]) of 0.05 to 1 µM and an IC50 (MMP1; [5]) of 1 to 10 µM.

`COCCOC(=O)N1[C@@H]2CC[C@H]1[C@H](C(=O)NO)N(S(=O)(=O)c1ccc(Oc3ccc(F)cc3)cn1)C2` [Example 14, 2-methoxyethyl (1S,2R,5R)-3-((5-(4-fluorophenoxy)pyridin-2-yl)sulfonyl)-2-(hydroxycarbamoyl)-3,8-diazabicyclo[3.2.1]octane-8-carboxylate] was tested, and the IC50 (MMP9; [1]) was < 0.05 µM, the IC50 (ADAM17 (TACE); [4]) was 1 to 10 µM and the IC50 (MMP13; [2]) was < 0.05 µM. For the same compound, the IC50 (MMP2; [3]) was < 0.05 µM and the IC50 (MMP1; [5]) was 1 to 10 µM.

With `COCCOC(=O)N1[C@@H]2CC[C@H]1[C@H](C(=O)NO)N(S(=O)(=O)c1ccc(Oc3cncc(Cl)c3)nc1)C2` [Example 15, (1S,2R,5R)-2-methoxyethyl 3-((6-((5-chloropyridin-3-yl)oxy)pyridin-3-yl)-sulfonyl)-2-(hydroxycarbamoyl)-3,8-diazabicyclo[3.2.1]-octane-8-carboxylate] the IC50 (MMP9; [1]) was 0.05 to 1 µM, the IC50 (ADAM17 (TACE); [4]) was 0.05 to 1 µM and the IC50 (MMP13; [2]) was 0.05 to 1 µM. The IC50 (MMP2; [3]) was 0.05 to 1 µM and the IC50 (MMP1; [5]) was 1 to 10 µM.

In the case of `COCCOC(=O)N1[C@@H]2CC[C@H]1[C@H](C(=O)NO)N(S(=O)(=O)c1ccc(Oc3ccc(C)nc3)nc1)C2` [Example 16, 2-methoxyethyl (1S,2R,5R)-2-(hydroxycarbamoyl)-3-((6-((6-methylpyridin-3-yl)-oxy)pyridin-3-yl)-sulfonyl)-3,8-diaza-bicyclo[3.2.1]octane-8-carboxylate], the IC50 (MMP9; [1]) is reported as 0.05 to 1 µM, the IC50 (ADAM17 (TACE); [4]) is reported as 1 to 10 µM and the IC50 (MMP13; [2]) is reported as 0.05 to 1 µM. For the same compound, the IC50 (MMP2; [3]) was < 0.05 µM and the IC50 (MMP1; [5]) was 1 to 10 µM.

For `COCCOC(=O)N1[C@@H]2CC[C@H]1[C@H](C(=O)NO)N(S(=O)(=O)c1cnc(Oc3ccc(F)cc3)cn1)C2` [Example 17, 2-methoxyethyl (1S,2R,5R)-3-((5-(4-fluorophenoxy)-pyrazin-2-yl)sulfonyl)-2-(hydroxycarbamoyl)-3,8-diazabicyclo-[3.2.1]octane-8-carboxylate], the IC50 (MMP9; [1]) was 1 to 10 µM, the IC50 (ADAM17 (TACE); [4]) was > 10 µM and the IC50 (MMP13; [2]) was 1 to 10 µM. The IC50 (MMP2; [3]) was 1 to 10 µM and the IC50 (MMP1; [5]) was > 10 µM.

`COCCOC(=O)N1[C@@H]2CC[C@H]1[C@H](C(=O)NO)N(S(=O)(=O)c1ccc(Oc3nc4cc(F)ccc4o3)c(F)c1)C2` [Example 83, 2-methoxyethyl (1S,2R,5R)-3-((3-fluoro-4-((5-fluoro-benzo[d]oxazol-2-yl)oxy)phenyl)sulfonyl)-2-(hydroxy-carbamoyl)-3,8-diazabicyclo[3.2.1]-octane-8-carboxylate] was tested, and the IC50 (MMP9; [1]) was 1 to 10 µM, the IC50 (MMP13; [2]) was 1 to 10 µM and the IC50 (MMP2; [3]) was 1 to 10 µM.

`COCCOC(=O)N1[C@@H]2CC[C@H]1[C@H](C(=O)NO)N(S(=O)(=O)c1ccc(Oc3nc4ccccc4o3)nc1)C2` [Example 84, 2-methoxyethyl (1S,2R,5R)-3-((6-(benzo[d]oxazol-2-yloxy)pyridin-3-yl)sulfonyl)-2-(hydroxycarbamoyl)-3,8-diazabicyclo[3.2.1]octane-8-carboxylate] was tested, and the IC50 (MMP9; [1]) was > 10 µM, the IC50 (MMP13; [2]) was > 10 µM and the IC50 (MMP2; [3]) was > 10 µM.
